In PubChem BioAssay (NCI):
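Interpolation was linear, between the two tested concentrations surrounding the appropriate level; five concentrations were tested over 48 hours in 96-well plates. The concentration for 50% growth inhibition is given as GI50. TGI is the concentration that stops growth completely.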

Assays:
Assay in all cases: growth of human tumour cells (NCI), 48 h
CAKI-1 renal = tested on: CAKI-1 renal
HS 578T breast = tested on: HS 578T breast
HOP-62 NSCLC = tested on: HOP-62 NSCLC
SK-OV-3 ovarian = tested on: SK-OV-3 ovarian
U251 CNS = tested on: U251 CNS
PC-3 prostate = tested on: PC-3 prostate
M14 melanoma = tested on: M14 melanoma
MDA-MB-231 breast = tested on: MDA-MB-231 breast
UO-31 renal = tested on: UO-31 renal
CCRF-CEM leukemia = tested on: CCRF-CEM leukemia
RXF 393 renal = tested on: RXF 393 renal
BT-549 breast = tested on: BT-549 breast
NCI-H522 lung = tested on: NCI-H522 lung
COLO 205 colon = tested on: COLO 205 colon
DU-145 prostate = tested on: DU-145 prostate
NCI/ADR-RES ovarian = tested on: NCI/ADR-RES ovarian
KM12 colon = tested on: KM12 colon
LOX IMVI melanoma = tested on: LOX IMVI melanoma
HCT-15 colon = tested on: HCT-15 colon
SF-268 CNS = tested on: SF-268 CNS
TK-10 renal = tested on: TK-10 renal
786-0 renal = tested on: 786-0 renal
SN12C renal = tested on: SN12C renal
OVCAR-3 ovarian = tested on: OVCAR-3 ovarian
MCF7 breast = tested on: MCF7 breast
SK-MEL-5 melanoma = tested on: SK-MEL-5 melanoma
NCI-H226 lung = tested on: NCI-H226 lung
SF-295 CNS = tested on: SF-295 CNS
HCT-116 colon = tested on: HCT-116 colon
HCC-2998 colon = tested on: HCC-2998 colon
UACC-62 melanoma = tested on: UACC-62 melanoma
SK-MEL-2 melanoma = tested on: SK-MEL-2 melanoma
HOP-92 NSCLC = tested on: HOP-92 NSCLC
SR leukemia = tested on: SR leukemia
A498 renal = tested on: A498 renal
SW-620 colon = tested on: SW-620 colon
SNB-75 CNS = tested on: SNB-75 CNS
UACC-257 melanoma = tested on: UACC-257 melanoma
EKVX NSCLC = tested on: EKVX NSCLC
MOLT-4 leukemia = tested on: MOLT-4 leukemia
A549 NSCLC = tested on: A549 NSCLC
K-562 leukemia = tested on: K-562 leukemia
HT29 colon = tested on: HT29 colon
RPMI-8226 leukemia = tested on: RPMI-8226 leukemia
SF-539 CNS = tested on: SF-539 CNS
ACHN renal = tested on: ACHN renal
HL-60(TB) leukemia = tested on: HL-60(TB) leukemia
IGROV1 ovarian = tested on: IGROV1 ovarian
SK-MEL-28 melanoma = tested on: SK-MEL-28 melanoma
T-47D breast = tested on: T-47D breast
NCI-H460 lung = tested on: NCI-H460 lung
OVCAR-8 ovarian = tested on: OVCAR-8 ovarian
OVCAR-4 ovarian = tested on: OVCAR-4 ovarian
NCI-H23 lung = tested on: NCI-H23 lung
MDA-MB-435 = tested on: MDA-MB-435
SNB-19 CNS = tested on: SNB-19 CNS
OVCAR-5 ovarian = tested on: OVCAR-5 ovarian
MALME-3M melanoma = tested on: MALME-3M melanoma

SMILES: CC(C)(C)OC(=O)N(CCCCN(CCCNC(=O)C(F)(F)F)C(=O)OC(C)(C)C)CCCNC(=O)C(F)(F)F
- TGI (CAKI-1 renal): > 100 µM
- TGI (HS 578T breast): > 100 µM
- TGI (HOP-62 NSCLC): > 100 µM
- TGI (SK-OV-3 ovarian): > 100 µM
- TGI (U251 CNS): > 100 µM
- TGI (PC-3 prostate): > 100 µM
- TGI (M14 melanoma): > 100 µM
- TGI (MDA-MB-231 breast): > 100 µM
- TGI (UO-31 renal): > 100 µM
- TGI (CCRF-CEM leukemia): > 100 µM
- TGI (RXF 393 renal): > 100 µM
- TGI (BT-549 breast): > 100 µM
- TGI (NCI-H522 lung): > 100 µM
- TGI (COLO 205 colon): > 100 µM
- TGI (DU-145 prostate): > 100 µM
- TGI (NCI/ADR-RES ovarian): > 100 µM
- TGI (KM12 colon): > 100 µM
- TGI (LOX IMVI melanoma): > 100 µM
- TGI (HCT-15 colon): > 100 µM
- TGI (SF-268 CNS): > 100 µM
- TGI (TK-10 renal): > 100 µM
- TGI (786-0 renal): > 100 µM
- TGI (SN12C renal): > 100 µM
- TGI (OVCAR-3 ovarian): > 100 µM
- TGI (MCF7 breast): > 100 µM
- TGI (SK-MEL-5 melanoma): > 100 µM
- TGI (NCI-H226 lung): > 100 µM
- TGI (SF-295 CNS): > 100 µM
- TGI (HCT-116 colon): > 100 µM
- TGI (HCC-2998 colon): > 100 µM
- TGI (UACC-62 melanoma): > 100 µM
- TGI (SK-MEL-2 melanoma): > 100 µM
- TGI (HOP-92 NSCLC): > 100 µM
- TGI (SR leukemia): > 100 µM
- TGI (A498 renal): > 100 µM
- TGI (SW-620 colon): > 100 µM
- TGI (SNB-75 CNS): > 100 µM
- TGI (UACC-257 melanoma): > 100 µM
- TGI (EKVX NSCLC): > 100 µM
- TGI (MOLT-4 leukemia): > 100 µM
- TGI (A549 NSCLC): > 100 µM
- TGI (K-562 leukemia): > 100 µM
- TGI (HT29 colon): > 100 µM
- TGI (RPMI-8226 leukemia): > 100 µM
- TGI (SF-539 CNS): > 100 µM
- TGI (ACHN renal): > 100 µM
- TGI (HL-60(TB) leukemia): > 100 µM
- TGI (IGROV1 ovarian): > 100 µM
- TGI (SK-MEL-28 melanoma): > 100 µM
- TGI (T-47D breast): > 100 µM
- TGI (NCI-H460 lung): > 100 µM
- TGI (OVCAR-8 ovarian): > 100 µM
- TGI (OVCAR-4 ovarian): > 100 µM
- TGI (NCI-H23 lung): > 100 µM
- TGI (MDA-MB-435): > 100 µM
- TGI (SNB-19 CNS): > 100 µM
- TGI (OVCAR-5 ovarian): > 100 µM

SMILES: Cc1ccc(SC2c3ccc(C)cc3Oc3nc(N)c(C#N)c(N)c32)cc1 (stereo not given)
- GI50 (HS 578T breast): 2.4 µM
- TGI (HS 578T breast): 7.64 µM
- GI50 (HOP-62 NSCLC): 1.79 µM
- TGI (HOP-62 NSCLC): 3.4 µM
- GI50 (SK-OV-3 ovarian): 10.1 µM
- TGI (SK-OV-3 ovarian): 21.7 µM
- GI50 (U251 CNS): 1.69 µM
- TGI (U251 CNS): 3.08 µM
- GI50 (PC-3 prostate): 1.85 µM
- TGI (PC-3 prostate): 3.74 µM
- GI50 (M14 melanoma): 1.77 µM
- TGI (M14 melanoma): 3.49 µM
- GI50 (MDA-MB-231 breast): 1.67 µM
- TGI (MDA-MB-231 breast): 3.29 µM
- GI50 (UO-31 renal): 1.18 µM
- TGI (UO-31 renal): 2.49 µM
- GI50 (MALME-3M melanoma): 1.77 µM
- TGI (MALME-3M melanoma): 3.6 µM
- GI50 (CCRF-CEM leukemia): 2.18 µM
- TGI (CCRF-CEM leukemia): 6.77 µM
- GI50 (RXF 393 renal): 1.81 µM
- TGI (RXF 393 renal): 3.28 µM
- GI50 (BT-549 breast): 1.63 µM
- TGI (BT-549 breast): 3.25 µM
- GI50 (NCI-H522 lung): 1.67 µM
- TGI (NCI-H522 lung): 3.11 µM
- GI50 (COLO 205 colon): 1.71 µM
- TGI (COLO 205 colon): 3.32 µM
- GI50 (DU-145 prostate): 1.86 µM
- TGI (DU-145 prostate): 3.36 µM
- GI50 (NCI/ADR-RES ovarian): 2.79 µM
- TGI (NCI/ADR-RES ovarian): 9.73 µM
- GI50 (KM12 colon): 2.36 µM
- TGI (KM12 colon): 6.6 µM
- GI50 (LOX IMVI melanoma): 1.59 µM
- TGI (LOX IMVI melanoma): 3.14 µM
- GI50 (HCT-15 colon): 1.72 µM
- TGI (HCT-15 colon): 3.23 µM
- GI50 (SF-268 CNS): 1.83 µM
- TGI (SF-268 CNS): 4.06 µM
- GI50 (TK-10 renal): 1.95 µM
- TGI (TK-10 renal): 3.39 µM
- GI50 (786-0 renal): 1.72 µM
- TGI (786-0 renal): 3.16 µM
- GI50 (OVCAR-3 ovarian): 1.77 µM
- TGI (OVCAR-3 ovarian): 3.22 µM
- GI50 (MCF7 breast): 1.94 µM
- TGI (MCF7 breast): 4.74 µM
- GI50 (SK-MEL-5 melanoma): 1.64 µM
- TGI (SK-MEL-5 melanoma): 3.1 µM
- GI50 (NCI-H226 lung): 1.77 µM
- TGI (NCI-H226 lung): 4 µM
- GI50 (SF-295 CNS): 6.77 µM
- TGI (SF-295 CNS): 19.5 µM
- GI50 (HCT-116 colon): 1.88 µM
- TGI (HCT-116 colon): 3.58 µM
- GI50 (HCC-2998 colon): 1.8 µM
- TGI (HCC-2998 colon): 3.46 µM
- GI50 (UACC-62 melanoma): 1.61 µM
- TGI (UACC-62 melanoma): 3.13 µM
- GI50 (SK-MEL-2 melanoma): 1.84 µM
- TGI (SK-MEL-2 melanoma): 3.71 µM
- GI50 (HOP-92 NSCLC): 1.45 µM
- TGI (HOP-92 NSCLC): 3.23 µM
- GI50 (SR leukemia): 2.16 µM
- TGI (SR leukemia): 5.54 µM
- GI50 (A498 renal): 2.72 µM
- TGI (A498 renal): 7.33 µM
- GI50 (SW-620 colon): 1.84 µM
- TGI (SW-620 colon): 3.84 µM
- GI50 (SNB-75 CNS): 1.5 µM
- TGI (SNB-75 CNS): 4.53 µM
- GI50 (UACC-257 melanoma): 1.8 µM
- TGI (UACC-257 melanoma): 3.22 µM
- GI50 (EKVX NSCLC): 1.59 µM
- TGI (EKVX NSCLC): 3.09 µM
- GI50 (MOLT-4 leukemia): 2.27 µM
- TGI (MOLT-4 leukemia): 6.09 µM
- GI50 (A549 NSCLC): 4.9 µM
- TGI (A549 NSCLC): 17.3 µM
- GI50 (K-562 leukemia): 2.79 µM
- TGI (K-562 leukemia): 12.4 µM
- GI50 (HT29 colon): 2 µM
- TGI (HT29 colon): 3.9 µM
- GI50 (RPMI-8226 leukemia): 2.15 µM
- TGI (RPMI-8226 leukemia): 5.12 µM
- GI50 (SF-539 CNS): 1.8 µM
- TGI (SF-539 CNS): 3.82 µM
- GI50 (ACHN renal): 1.63 µM
- TGI (ACHN renal): 2.99 µM
- GI50 (HL-60(TB) leukemia): 2.09 µM
- TGI (HL-60(TB) leukemia): 5.49 µM
- GI50 (SK-MEL-28 melanoma): 1.83 µM
- TGI (SK-MEL-28 melanoma): 3.35 µM
- GI50 (T-47D breast): 1.8 µM
- TGI (T-47D breast): 5.01 µM
- GI50 (NCI-H460 lung): 1.94 µM
- TGI (NCI-H460 lung): 4.07 µM
- GI50 (OVCAR-8 ovarian): 1.67 µM
- TGI (OVCAR-8 ovarian): 3.06 µM
- GI50 (OVCAR-4 ovarian): 1.8 µM
- TGI (OVCAR-4 ovarian): 3.29 µM
- GI50 (MDA-MB-435): 1.81 µM
- TGI (MDA-MB-435): 3.4 µM
- GI50 (SNB-19 CNS): 1.86 µM
- TGI (SNB-19 CNS): 3.71 µM
- GI50 (OVCAR-5 ovarian): 1.76 µM
- TGI (OVCAR-5 ovarian): 3.45 µM
